US20100004159A1, “SUBSTITUTED IMIDAZOLONE DERIVATIVES, PREPARATIONS AND USES” (GENFIT, priority 2006, published 2010)

How the values were obtained:
[1] = target: T1, angiotensin II AT1 receptor (Oryctolagus cuniculus, UniProt P34976); assay: Ex vivo agonist/antagonist activity on isolated rabbit thoracic aorta rings; details: 0.3, 3 and 30 μM; for agonist activity (contraction): non-treated rabbit thoracic aorta; for antagonist activity (inhibition of contractile response to angiotensin II): rabbit thoracic aorta previously exposed to angiotensin II 0.003 μM
T1 construct: tissue CEREP; host or cells: rabbit thoracic aorta rings
T1 sequence (P34976 1-359): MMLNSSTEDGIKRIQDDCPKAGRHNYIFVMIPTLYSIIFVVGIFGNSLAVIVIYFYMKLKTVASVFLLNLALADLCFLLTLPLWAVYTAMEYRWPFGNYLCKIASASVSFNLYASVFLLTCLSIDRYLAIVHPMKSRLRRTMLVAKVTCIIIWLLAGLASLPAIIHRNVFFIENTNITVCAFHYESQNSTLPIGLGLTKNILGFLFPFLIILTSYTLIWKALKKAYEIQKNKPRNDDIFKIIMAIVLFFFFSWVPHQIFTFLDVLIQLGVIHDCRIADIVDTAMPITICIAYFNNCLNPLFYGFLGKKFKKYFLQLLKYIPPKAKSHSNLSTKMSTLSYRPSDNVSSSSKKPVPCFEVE
Method: This activity is either agonist or antagonist and was evaluated ex vivo on isolated organs. Agonist activity corresponds to tissue contraction. Antagonist activity corresponds to tissue dilatation.
The ex vivo test was performed at the CEREP (Celle L'Evescault, France (86)) following a protocol based on Pendleton et al. (Pendleton R G et al.,1989). Rabbit thoracic aorta rings with intact endothelium were suspended in baths for organs containing an oxygenated physiologic saline solution (95% O2 and 5% CO2) and preheated (37° C.) having the following composition (mM): NaCl 118.0, KCl 4.7, MgSO4 1.2, CaCl2 2.5, KH2PO4 1.2, NaHCO3 25.0, and glucose 11.0 (pH 7.4).
Benextramine (1 μM), propranolol (1 μM), pyrilamine (1 μM), atropine (1 μM), methysergide (1 μM), and captopril (0.1 μM) were also used in all carried out experiments to block respectively α-adrenergic, β-adrenergic, histaminic H1 muscarinic, and 5-HT2 receptors as well as to prevent peptide degradation. The tissues were bound to a force sensor suitable for isometric tension recording. They were stretched to a resting tension of 4 g, then stabilized for 60 minutes. During the stabilization, they were washed several times and the tension was adjusted. The experiments were carried out using semi-automatic systems of isolated organs with eight organ baths and multichannel data acquisition.
The tissues were exposed to a submaximal concentration of the reference agonist (angiotensin II at 0.003 μM) to verify the response and obtain a control contractile response.
After several washing operations and after having recovered the basal tone, the tissues were exposed to increasing concentrations of compounds according to the invention or the same agonist. The different concentrations were added cumulatively, each one was left in contact with the tissues until a stable response was reached and for a maximum of 30 minutes. If an agonist type response (contraction) was registered, the reference antagonist (Saralasine at 0.01 μM) was tested regarding the highest concentration of the compounds according to the invention to confirm the involvement of the AT1 receptors in the response.
After stabilization of the contraction induced by angiotensin II, increasing concentrations of compounds according to the invention or of the reference antagonist (Saralasine) were added cumulatively. Each concentration was left in contact with the tissues until a stable response was observed and for a maximum of 30 minutes.
The inhibiting effect of the compounds according to the invention on the contraction induced by the angiotensin 11 indicates antagonist activity on AT1 receptors.

[2] = tested on: Wistar rats under perfusion of angiotensin II; assay: Arterial pressure of Wistar rats under angiotensin II perfusion; assay type: in vivo, rat; details: angiotensin II perfusion 100 ng/kg/min; intravenous increasing doses 1, 3, 10 and 30 mpk
Method: This experimental procedure is intended to show the anti-hypertensive effects of the compounds according to the invention in Wistar rats in which hypertension is induced either by continuous intravenous administration of angiotensin II (example 21.1) or by repeated intravenous administration of angiotensin II (example 21.2). The animals were treated with the compounds according to the invention intravenously at increasing doses. To validate the study, the control animals were administered, in the same conditions, either the vehicle itself or a reference.
Wistar rats (males—200-250 g—5-6 weeks old—CERJ) were anesthetized for surgery using pentobarbital (50 mg/kg). A catheter was placed in the right jugular vein for the angiotensin II perfusion. A catheter was placed in the left jugular vein for the administration of the compounds according to the invention. The angiotensin II perfusion at 100 ng/kg/min was performed using an auto-syringe set at 5 ml/hour (vehicle NaCl 0.15M). A solution of Na2CO3/NaHCO3 (50 mM pH 9.6) served as the vehicle for the compounds according to the invention. Arterial pressure was measured using a sensor set in the carotid artery via a catheter.
The arterial pressure of the animal was measured for few minutes in basal conditions, before the angiotensin II perfusion was put into place. […]

Row | Compound | agonist activity (contraction) [1] | antagonist activity (inhibition of contractile response to angiotensin II) [1] | arterial pressure: antagonist effect on angiotensin II [2] | melting point [°C]
1 | CCCCC1=NC2(CCCC2)C(=O)N1Cc1ccc(-c2cccc(OC(C)(C)C(=O)O)c2)cc1 [Compound 1, 2-butyl-1-[(3′-((1-carboxy-1,1-dimethylmethyl)oxy)biphenyl-4-yl)methyl]-4-spirocyclopentyl-1H-imidazol-5(4H)-one] | do not induce contraction | inhibiting effect of the contractile response of the reference agonist | antagonist effect on angiotensin II in a significant and dose-dependent way | 169 to 171
2 | CCCCC1=NC2(CCCCC2)C(=O)N1Cc1ccc(-c2cccc(OC(C)(C)C(=O)O)c2)cc1 [Compound 21, 2-butyl-1-[(3′-((1-carboxy-1,1-dimethylmethyl)oxy)biphenyl-4-yl)methyl]-4-spirocyclohexyl-1H-imidazol-5(4H)-one] | do not induce contraction | inhibiting effect of the contractile response of the reference agonist | antagonist effect on angiotensin II in a significant and dose-dependent way | 160 to 162
